We go through five molecules from article PMC10096180, “Half-Sandwich Type Platinum-Group Metal Complexes of C-Glucosaminyl Azines: Synthesis and Antineoplastic and Antimicrobial Activities” (Molecules, 2023).

The nature of data set [1]: Distribution coefficient (logD), n-octanol-PBS. The class given is physicochemical. To be noted: n-octanol-PBS (pH = 7.4) system. As to the method: The logD values of the newly synthesized complexes were determined according to a procedure described in our previous publications. page 64: Ir-7b +1.17 Rh-7b +1.41 Ru-7c +1.31 Os-7c +1.59 Ir-7c +1.40 Rh-7c +1.13 Ru-7d +1.26 Os-7d +1.42 Ir-7d +1.30 Rh-7d +1.04 Ru-7e +2.22 Os-7e +2.21 Ir-7e +1.39 Rh-7e +1.66 *logD was determined in an n-octanol-PBS (pH = 7.4) system 64 (14 pictures or pasted objects on this page, not shown here)

Data set [2] concerns methicillin-resistant Staphylococcus aureus (MRSA) clinical isolates. The data set is described as follows: Broth microdilution MIC, clinical MRSA isolates. The class given is cell-based. Conditions: 24 h, 0.08–40 μM. The method, then:
(§1) We used a set of clinical isolates of S. aureus and E. faecium that were collected at the Medical Center of the University of Debrecen (Hungary) between 1 January 2018. and 31 December 2020. The clinical isolates were identified using a Microflex MALDI-TOF mass spectrometer (Bruker, Billerica, MA, USA). The antibiotic susceptibility of the isolates was tested following the European Committee on Antimicrobial Susceptibility Testing (EUCAST) guidelines, which were valid at the time of collection.
(§2) Microdilution experiments were performed according to the standards of EUCAST [85]. The bacterial isolates to be tested were grown on Mueller–Hinton agar plates. The inoculum density of bacteria was set at 5.0 × 10^5 CFU/mL in microtiter plates in a final volume of 200 μL Mueller–Hinton broth. The tested concentration range was 0.08–40 μM (10 concentrations, twofold serial dilutions), and a drug-free growth control and an inoculum-free negative control were included. The inoculated plates were incubated for 24 h at 37 °C, then visually assessed. Minimum inhibitory concentration (MIC) was defined as the lowest concentration with a 50%≤ inhibitory effect compared to the growth control. All experiments were performed at least twice in duplicate.

Data set [3] deals with Staphylococcus aureus (ATCC29213). The data set is described as follows: Broth microdilution MIC, reference strain. The class given is cell-based. To be noted: 0.08–40 μM, read-out: MIC S. aureus ATCC 29213. As to the method: (§3) The reference strains of Staphylococcus aureus (ATCC29213) and Enterococcus faecalis (ATCC29212) were purchased from the ATCC (Manassas, VA, USA).
as §2

For data set [4], the system named is Enterococcus faecalis (ATCC29212). The data set is described as follows: Broth microdilution MIC, reference strain. It counts as cell-based. Conditions: 24 h, tested range 0.08–40 μM, read-out: MIC E. faecalis ATCC 29,212. The method, then: as §3, §2
Data set [5] relates to A2780 cells. The data set is described as follows: MTT reduction assay, early toxicity, 4 h treatment. The class given is cell-based. Conditions: inhibition at maximum concentration (100 μM) where no plateau, ND = not detectable. As to the method: (§4) The complexes described above are intended to replace registered platinum complexes. Platinum complexes constitute the core of the chemotherapy regimen used in ovarian cancer; therefore, we used a cellular model of ovarian cancer, A2780, and primary human dermal fibroblasts as models of non-transformed cells (controls). For the characterization of the complexes, we used an MTT assay after 4 h of treatment for the detection of early toxicity and an SRB assay 48 h after treatment for the detection of cytostasis.
(§5) An MTT reduction assay was measures the activity of mitochondrial complex I and can be used to detect toxicity. The assay was performed in a manner similar to that described in [84]. Briefly, cells were plated in 96-well plates the day before the assay. Cells were treated with the compounds for 4 h; then, MTT was added to a 0.5 mg/mL final concentration, and cells were incubated at 37 °C in a cell incubator for 40–60 min as a function of the cell line being assessed. Culture medium was removed, the reduced MTT dye was dissolved in dimethyl-sulfoxide, and plates were measured in a plate photometer (Thermo Scientific Multiscan GO spectrophotometer, Waltham, MA, USA) at 540 nm. On each plate, wells were designed to contain vehicle-treated cells. In calculations, the readings for these wells were considered to 1, and all readings were expressed relative to these values.
(§6) Statistical analysis was performed using version 8.0.1 of GraphPad Prism. Values were tested for normal distribution using the Shapiro–Wilk normality test. Nonlinear regression was performed using the built-in “[Inhibitor] vs. response—Variable slope (four parameters), least square fit” utility of GraphPad, which yielded IC50 and Hill slope values if the sigmoid curves reached a plateau of inhibition and there was no decrease between two subsequent data points or when inhibition was over 90%. In other cases, the percentage of inhibition was taken for the maximum concentration (100 μM).

In data set [6] the test system is A2780 cells. Kind of data set: SRB binding assay, cytostasis, 48 h treatment. It counts as cell-based. To be noted: for A2780 SRB Max Inhibition: up to 100 μM, ND = not detectable. As to the method: as §4
An SRB assay measures protein content of cells in correlation with the cell number in an assay well and can therefore be used to assess cell proliferation or long-term cytostasis. Cells were seeded in 96-well plates the day before the assay. Cells were treated with the compounds for 48 h. Then medium was removed, and cells were fixed with 10% trichloroacetic acid. Fixed cells were washed in distilled water 3 times, followed by staining with SRB (0.4 m/V% dissolved in 1% acetic acid) for 10 min. Stained cells were washed in 1% acetic acid 5 times; acetic acid was removed, and cells were left to dry. Protein-bound SRB was released by adding 100 μL 10 mM Tris base. Plates were measured in a plate photometer (Thermo Scientific Multiscan GO spectrophotometer, Waltham, MA, USA) at 540 nm. On each plate, wells were designed to contain vehicle-treated cells. In calculations, the readings for these wells were considered to be 1, and all readings were expressed relative to these values.
as §6

Data set [7] deals with vancomycin-resistant Enterococcus (VRE) clinical isolates. Kind of data set: Broth microdilution MIC, clinical VRE isolates. To be noted: 24 h, 0.08–40 μM. It counts as cell-based, E. faecium. As to the method: as §1, §2
The test system of data set [8] is primary human dermal fibroblasts. The data set is described as follows: MTT reduction assay, early toxicity, 4 h treatment. It counts as cell-based. To be noted: up to 100 μM. The method, then: as §4, §5, §6
Where [9] appears, read: clinical isolate 20,426 MRSA, read-out: MIC 20,426 MRSA.
Setting [10] is: clinical isolate 24,035 MRSA, read-out: MIC 24,035 MRSA.
Setting [11] is: clinical isolate 24,268 MRSA, read-out: MIC 24,268 MRSA.
[12] abbreviates: clinical isolate 24,272 MRSA, read-out: MIC 24,272 MRSA.
Setting [13] is: clinical isolate 24,328 MRSA, read-out: MIC 24,328 MRSA.
Setting [14] is: clinical isolate 24,408 MRSA, read-out: MIC 24,408 MRSA.
Where [15] appears, read: clinical isolate 25,051 VRE, read-out: MIC 25,051 VRE.
Setting [16] is: clinical isolate 25,498 VRE, read-out: MIC 25,498 VRE.
[17] abbreviates: clinical isolate 27,085 VRE, read-out: MIC 27,085 VRE.

Read-outs that look alike come from different tables or passages of the source.

`Cc1ccc(C(C)C)cc1.F[P-](F)(F)(F)(F)F.N[C@@H]1[C@@H](OC(=O)c2ccccc2)[C@H](OC(=O)c2ccccc2)[C@@H](COC(=O)c2ccccc2)O[C@H]1c1ccc2ccccc2n1.[Cl][Os+]` [Os-7e]: the pH-dependent lipophilicity (logD) in data set [1] is on record as 2.21. The minimal inhibitory concentration (MIC) in data set [2] (setting [9]), in data set [2] (setting [10]), in data set [2] (setting [11]), in data set [2] (setting [12]), in data set [2] (setting [13]) and in data set [2] (setting [14]) was more than 40 µM throughout. The minimum inhibitory concentration (MIC) in data set [3] (24 h), in data set [4], in data set [7] (setting [15]), in data set [7] (setting [16]) and in data set [7] (setting [17]) was more than 40 µM each time. Besides, the “A2780 MTT Max Inhibition” value in data set [5] was found to be 27.04%. For the same molecule, in data set [6], the “A2780 SRB Max Inhibition” value worked out at 67.50%.

`Cc1c(C)c(C)[c-](C)c1C.F[P-](F)(F)(F)(F)F.N[C@@H]1[C@@H](OCc2ccccc2)[C@H](OCc2ccccc2)[C@@H](COCc2ccccc2)O[C@H]1c1ccccn1.[Cl][Rh+2]` [Rh-3a]: the pH-dependent lipophilicity (logD) in data set [1] came out at 1.64. Further, the MIC in data set [2] (setting [9]), in data set [2] (setting [10]), in data set [2] (setting [11]), in data set [2] (setting [12]), in data set [2] (setting [13]) and in data set [2] (setting [14]) was more than 40 µM each time. The MIC in data set [3] (24 h), in data set [4], in data set [7] (setting [15]), in data set [7] (setting [16]) and in data set [7] (setting [17]) was more than 40 µM each time. Besides, the “Fibroblast MTT Max Inhibition” value in data set [8] is given as 37.82%. The half-inhibitory concentration (IC50) in data set [6] was 9.81 µM. Besides, the “A2780 SRB Max Inhibition” value in data set [6] is listed as more than 90%.

For the molecule `Cc1c(C)c(C)[c-](C)c1C.F[P-](F)(F)(F)(F)F.N[C@@H]1[C@@H](OC(=O)c2ccccc2)[C@H](OC(=O)c2ccccc2)[C@@H](COC(=O)c2ccccc2)O[C@H]1c1ccc2ccccc2n1.[Cl][Rh+2]` [Rh-7e], the pH-dependent lipophilicity (logD) in data set [1] is reported as 1.66. Besides, the MIC in data set [2] (setting [9]), in data set [2] (setting [10]), in data set [2] (setting [11]), in data set [2] (setting [12]), in data set [2] (setting [13]) and in data set [2] (setting [14]) was more than 40 µM each time. Moreover, the MIC in data set [3] (24 h), in data set [4], in data set [7] (setting [15]), in data set [7] (setting [16]) and in data set [7] (setting [17]) was more than 40 µM in each case. Moreover, the “A2780 MTT Max Inhibition” value in data set [5] is listed as 31.89%. Also, the “A2780 SRB Max Inhibition” value in data set [6] amounted to 67.32%.

Molecule `Cc1ccc(C(C)C)cc1.F[P-](F)(F)(F)(F)F.N[C@@H]1[C@@H](OC(=O)c2ccccc2)[C@H](OC(=O)c2ccccc2)[C@@H](COC(=O)c2ccccc2)O[C@H]1c1ccc2ccccc2n1.[Cl][Ru+]` [Ru-7e] displayed a logD in data set [1] of 2.22. In addition, the minimal inhibitory concentration (MIC) in data set [2] (setting [9]), in data set [2] (setting [10]), in data set [2] (setting [11]), in data set [2] (setting [12]), in data set [2] (setting [13]) and in data set [2] (setting [14]) was more than 40 µM in each case. In addition, the MIC in data set [3] (24 h), in data set [4], in data set [7] (setting [15]), in data set [7] (setting [16]) and in data set [7] (setting [17]) was more than 40 µM each time. Besides, in data set [5], the “A2780 MTT Max Inhibition” value is 27.04%. In data set [6], the “A2780 SRB Max Inhibition” value stood at 67.50%.

As to `N[C@@H]1[C@@H](OC(=O)c2ccccc2)[C@H](OC(=O)c2ccccc2)[C@@H](COC(=O)c2ccccc2)O[C@H]1c1cccnn1` [Complex 7b, 3-(2′-Amino-2′-deoxy-3′,4′,6′-tri-O-benzoyl-β-D-glucopyranosyl)pyridazine], the MIC is more than 40 µM in data set [2] (Staphylococcus aureus, clinical isolate 20,426 MRSA, read-out: MIC 20,426 MRSA); more than 40 µM in data set [2] (Staphylococcus aureus, clinical isolate 24,035 MRSA, read-out: MIC 24,035 MRSA); more than 40 µM in data set [2] (Staphylococcus aureus, clinical isolate 24,268 MRSA, read-out: MIC 24,268 MRSA); more than 40 µM in data set [2] (Staphylococcus aureus, clinical isolate 24,272 MRSA, read-out: MIC 24,272 MRSA); more than 40 µM in data set [2] (Staphylococcus aureus, clinical isolate 24,328 MRSA, read-out: MIC 24,328 MRSA); more than 40 µM in data set [2] (Staphylococcus aureus, clinical isolate 24,408 MRSA, read-out: MIC 24,408 MRSA). Moreover, the minimum inhibitory concentration (MIC) in data set [3] (Staphylococcus aureus, ATCC29213, 24 h) is more than 40 µM; in data set [4] (Enterococcus faecalis), more than 40 µM; in data set [7] (Enterococcus, clinical isolate 25,051 VRE, read-out: MIC 25,051 VRE) it was more than 40 µM; in data set [7] (Enterococcus, clinical isolate 25,498 VRE, read-out: MIC 25,498 VRE) it was more than 40 µM; in data set [7] (Enterococcus, clinical isolate 27,085 VRE, read-out: MIC 27,085 VRE), more than 40 µM. Besides, in data set [5] (Homo sapiens, read-out: A2780 MTT Max Inhibition), the inhibition at 100 µM was found to be 9.12%. In addition, the “Fibroblast MTT Max Inhibition” value in data set [8] turned out to be 11.39%. Moreover, the “A2780 SRB Max Inhibition” value in data set [6] is recorded as 18.38%.
